Converted amounts (≈) assume the structure as drawn.
Experiments:
Assay in all cases: antimicrobial activity, broth dilution method
Format in all cases: cell-based
[1] = test system: Bacillus cereus ATCC 9634; settings: Bacillus cereus, ATCC9634, Bacillus cereus ATCC 9634; broth dilution; read-out: minimum inhibitory concentration (MIC)
Method: (§1) Antimicrobial activity of the new antibiotics according to the present invention was measured on various pathogenic microorganisms by the broth dilution mehtod. Tab. […] The new antibiotics show a similar antimicrobial spectrum to that of tylosin as shown in Tab. 4. All the compounds have an excellent antimicrobial activity mainly on gram-positive bacteria. […] Test microorganisms with an asterisk mark (*) in Tab. 4 are all drug-resistant strains that were clinically isolated. More in detail, Staphylococcus aureus MS-8710 is resistant to tylosin, penicillin, tetracycline, erythromycin and leucomycin. Staphylococcus aureus MS-9931 is resistant to tylosin, penicillin, erythromycin, tetracycline, leucomycin, spiramycin and josamycin. And also Streptococcus piogenes is resistant to tylosin, erythromycin, oleandomycin and leucomycin.

Sarcina lutea ATCC 9341 = settings: Micrococcus luteus, ATCC9341, Sarcina lutea ATCC 9341, read-out: minimum inhibitory concentration (MIC)
Method: as §1

[2] = test system: Staphylococcus aureus FDA-209P; settings: Staphylococcus aureus, FDA209P, Staphylococcus aureus FDA-209P; broth dilution; read-out: minimum inhibitory concentration (MIC)
Method: as §1

[3] = test system: Staphylococcus aureus MS-8710; settings: Staphylococcus aureus, MS8710, Staphylococcus aureus MS-8710, drug-resistant clinical isolate; read-out: minimum inhibitory concentration (MIC)
Method: as §1

[4] = test system: Staphylococcus aureus MS-9931; settings: MS9931; Staphylococcus aureus MS-9931, drug-resistant clinical isolate; read-out: minimum inhibitory concentration (MIC)
Method: as §1

[5] = test system: Staphylococcus aureus MS-9937; settings: MS9937; Staphylococcus aureus MS-9937, drug-resistant clinical isolate; read-out: minimum inhibitory concentration (MIC)
Method: as §1

[6] = test system: Staphylococcus aureus SMITH; settings: Staphylococcus aureus, Staphylococcus aureus SMITH; broth dilution; read-out: minimum inhibitory concentration (MIC)
Method: as §1

[7] = test system: Streptococcus pyogenes MH-771; settings: Streptococcus pyogenes, MH771, Streptococcus pyogenes MH-771, drug-resistant clinical isolate; read-out: minimum inhibitory concentration (MIC)
Method: as §1

SMILES	MIC [1] [µg/mL]	MIC (Sarcina lutea ATCC 9341) [µg/mL]	MIC [2] [µg/mL]	MIC [3] [µg/mL]	MIC [4] [µg/mL]	MIC [5] [µg/mL]	MIC [6] [µg/mL]	MIC [7] [µg/mL]
CCC1OC(=O)CC(OC(C)=O)C(C)C(OC2OC(C)C(OC3CC(C)(O)C(OC(=O)Cc4cccc5ccccc45)C(C)O3)C(N(C)C)C2O)C(CC=O)CC(C)C(=O)C=CC(C)=CC1COC1OC(C)C(O)C(OC)C1OC (stereo not drawn) [Compound 23, 3-acetyl-4"-α-naphthylacetyltylosin]	0.78 (≈ 0.693 µM)	0.39 (≈ 0.346 µM)	0.78 (≈ 0.693 µM)	25 (≈ 22.2 µM)	25 (≈ 22.2 µM)	50 (≈ 44.4 µM)	0.78 (≈ 0.693 µM)	25 (≈ 22.2 µM)
CCC1OC(=O)CC(OC(C)=O)C(C)C(OC2OC(C)C(OC3CC(C)(O)C(OC(=O)C(O)Cc4ccccc4)C(C)O3)C(N(C)C)C2O)C(CC=O)CC(C)C(=O)C=CC(C)=CC1COC1OC(C)C(O)C(OC)C1OC [Compound 26, 3-acetyl-4"-L-[(α-hydroxy-β-phenyl)propionyl]tylosin]	0.78 (≈ 0.705 µM)	0.39 (≈ 0.353 µM)	0.78 (≈ 0.705 µM)	50 (≈ 45.2 µM)	50 (≈ 45.2 µM)	50 (≈ 45.2 µM)	0.78 (≈ 0.705 µM)	12.5 (≈ 11.3 µM)
CCC1OC(=O)CC(OC(C)=O)C(C)C(OC2OC(C)C(OC3CC(C)(O)C(OC(=O)C(Cc4ccccc4)OC(C)=O)C(C)O3)C(N(C)C)C2O)C(CC=O)CC(C)C(=O)C=CC(C)=CC1COC1OC(C)C(O)C(OC)C1OC [Compound 27, 3-acetyl-4"-L-[(α-acetoxy-β-phenyl)propionyl]tylosin]	0.78 (≈ 0.679 µM)	0.39 (≈ 0.34 µM)	0.78 (≈ 0.679 µM)	50 (≈ 43.5 µM)	50 (≈ 43.5 µM)	50 (≈ 43.5 µM)	0.78 (≈ 0.679 µM)	25 (≈ 21.8 µM)
CCC1OC(=O)CC(OC(C)=O)C(C)C(OC2OC(C)C(OC3CC(C)(O)C(OC(=O)C(Cc4ccc(OC(C)=O)cc4)OC(C)=O)C(C)O3)C(N(C)C)C2O)C(CC=O)CC(C)C(=O)C=CC(C)=CC1COC1OC(C)C(O)C(OC)C1OC (stereo not drawn) [Compound 28, 3-acetyl-4"-[α-acetoxy-β-(4-acetoxyphenyl)propionyl]tylosin]	1.56 (≈ 1.29 µM)	0.78 (≈ 0.647 µM)	1.56 (≈ 1.29 µM)	25 (≈ 20.7 µM)	50 (≈ 41.4 µM)	25 (≈ 20.7 µM)	1.56 (≈ 1.29 µM)	25 (≈ 20.7 µM)
CCC1OC(=O)CC(OC(C)=O)C(C)C(OC2OC(C)C(OC3CC(C)(O)C(OC(=O)Cc4cccnc4)C(C)O3)C(N(C)C)C2O)C(CC=O)CC(C)C(=O)C=CC(C)=CC1COC1OC(C)C(O)C(OC)C1OC (stereo not drawn) [Compound 31, 3-acetyl-4"-(3-pyridyl)acetyltylosin]	0.39 (≈ 0.362 µM)	0.19 (≈ 0.176 µM)	0.39 (≈ 0.362 µM)	12.5 (≈ 11.6 µM)	12.5 (≈ 11.6 µM)	12.5 (≈ 11.6 µM)	0.39 (≈ 0.362 µM)	6.25 (≈ 5.8 µM)

More lines, now with the values ahead:

MIC [1] [µg/mL]	MIC (Sarcina lutea ATCC 9341) [µg/mL]	MIC [2] [µg/mL]	MIC [3] [µg/mL]	MIC [4] [µg/mL]	MIC [5] [µg/mL]	MIC [6] [µg/mL]	MIC [7] [µg/mL]	SMILES
1.56 (≈ 1.44 µM)	0.39 (≈ 0.36 µM)	1.56 (≈ 1.44 µM)	12.5 (≈ 11.5 µM)	25 (≈ 23.1 µM)	25 (≈ 23.1 µM)	1.56 (≈ 1.44 µM)	50 (≈ 46.1 µM)	CCC1OC(=O)CC(O)C(C)C(OC2OC(C)C(OC3CC(C)(O)C(OC(=O)Cc4cccc5ccccc45)C(C)O3)C(N(C)C)C2O)C(CC=O)CC(C)C(=O)C=CC(C)=CC1COC1OC(C)C(O)C(OC)C1OC (stereo not drawn) [Compound 22, 4"-α-naphthylacetyltylosin]
0.78 (≈ 0.715 µM)	0.39 (≈ 0.358 µM)	1.56 (≈ 1.43 µM)	50 (≈ 45.9 µM)	50 (≈ 45.9 µM)	50 (≈ 45.9 µM)	0.78 (≈ 0.715 µM)	25 (≈ 22.9 µM)	CCC1OC(=O)CC(OC(C)=O)C(C)C(OC2OC(C)C(OC3CC(C)(O)C(OC(=O)CCc4ccccc4)C(C)O3)C(N(C)C)C2O)C(CC=O)CC(C)C(=O)C=CC(C)=CC1COC1OC(C)C(O)C(OC)C1OC (stereo not drawn) [Compound 25, 3-acetyl-4"-β-phenylpropionyltylosin]
1.56 (≈ 1.44 µM)	0.78 (≈ 0.722 µM)	1.56 (≈ 1.44 µM)	25 (≈ 23.1 µM)	25 (≈ 23.1 µM)	50 (≈ 46.3 µM)	1.56 (≈ 1.44 µM)	12.5 (≈ 11.6 µM)	CCC1OC(=O)CC(O)C(C)C(OC2OC(C)C(OC3CC(C)(O)C(OC(=O)CSc4ccc(C)cc4)C(C)O3)C(N(C)C)C2O)C(CC=O)CC(C)C(=O)C=CC(C)=CC1COC1OC(C)C(O)C(OC)C1OC (stereo not drawn) [Compound 35, 4"-(4-methylphenyl)thioacetyltylosin]
0.78 (≈ 0.722 µM)	0.39 (≈ 0.361 µM)	0.78 (≈ 0.722 µM)	25 (≈ 23.1 µM)	50 (≈ 46.3 µM)	50 (≈ 46.3 µM)	0.78 (≈ 0.722 µM)	25 (≈ 23.1 µM)	CCC1OC(=O)CC(O)C(C)C(OC2OC(C)C(OC3CC(C)(O)C(OC(=O)CSc4cccc(C)c4)C(C)O3)C(N(C)C)C2O)C(CC=O)CC(C)C(=O)C=CC(C)=CC1COC1OC(C)C(O)C(OC)C1OC (stereo not drawn) [Compound 36, 4"-(3-methylphenyl)thioacetyltylosin]
